Our source for the IC50 values is US20260028326A1, “COMPOUND BASED ON ISOINDOLINE-SUBSTITUTED GLUTARIMIDE BACKBONE AND USE THEREOF” (GLUETACS THERAPEUTICS (SHANGHAI) CO., LTD., priority 2022, published 2026).

Broadly, the IC50 is the concentration at which inhibition is half-maximal.

In the assay the target is human Cereblon WT GST-tagged protein (Homo sapiens (Human), UniProt Q96SW2). As to the kind of experiment: CRBN-binding affinity, HTRF (CEREBLON BINDING kit). Here is the method: The CEREBLON BINDING kits (specification: 10,000 tests; product number: Catalog #64BDCRBNPEH; CISBIO company) was used to determine the CRBN binding ability of the compounds to be tested through a HTRF method (homogeneous time-resolved fluorescence). The specific methods are as follows: • 1. […] Then, 2.5 μL of human Cereblon WT GST-tagged protein solution was added to each well. Finally, 5 μL of the thoroughly mixed Thalidomide-Re reagent and GST Eu antibody working solution were added to each of the aforementioned wells. […] The blank control wells were sequentially added with 2.5 μL of diluent #9 (1×) solution, 2.5 μL of PROTAC binding buffer, and 5 μL of thoroughly mixed Thalidomide-Re reagent and GST Eu antibody working solution. • 4.
human Cereblon WT GST-tagged protein, sequence (Q96SW2 whole entry): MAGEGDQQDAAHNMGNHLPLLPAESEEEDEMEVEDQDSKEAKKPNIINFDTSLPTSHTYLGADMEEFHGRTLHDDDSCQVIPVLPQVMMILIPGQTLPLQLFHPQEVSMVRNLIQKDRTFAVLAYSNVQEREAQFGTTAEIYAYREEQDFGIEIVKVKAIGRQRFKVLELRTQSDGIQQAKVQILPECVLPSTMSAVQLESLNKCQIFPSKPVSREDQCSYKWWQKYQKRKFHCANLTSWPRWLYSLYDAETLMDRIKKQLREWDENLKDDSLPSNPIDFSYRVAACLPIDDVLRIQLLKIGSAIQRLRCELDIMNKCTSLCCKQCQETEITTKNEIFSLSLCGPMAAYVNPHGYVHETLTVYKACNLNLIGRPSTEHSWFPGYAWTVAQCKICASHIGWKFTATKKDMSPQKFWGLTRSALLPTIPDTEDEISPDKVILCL
The corresponding CRBN binding inhibition rate was calculated using the following method: […]
For orientation: TR-FRET usually uses a lanthanide donor and a delayed reading to cut background.
On to `CC1(C)CCC(CN2CC3CC(C2)N3Cc2cc3c(cc2F)C(=O)N(C2CCC(=O)NC2=O)C3)=C(c2ccc(Cl)cc2)C1` (stereo not drawn) [GT-05367, 3-(5-((3-((4′-chloro-5,5-dimethyl-3,4,5,6-tetrahydro-[1,1′-biphenyl]-2-yl)methyl)-3,6-diazabicyclo[3.1.1]heptan-6-yl)methyl)-6-fluoro-1-oxoisoindolin-2-yl)piperidine-2,6-dione], for which the IC50 was 400 nM. In the case of `O=C1CCC(N2C(=O)c3ccc(N4CC5CC(C4)N5Cc4ccccc4-c4ccc(Cl)cc4)cc3C2=O)C(=O)N1` (stereo not drawn) [GT-05373, 5-(6-((4′-chloro-[1,1′-biphenyl]-2-yl)methyl)-3,6-diazabicyclo[3.1.1]heptan-3-yl)-2-(2,6-dioxopiperidin-3-yl)isoindoline-1,3-dione] it was 1490 nM; in that of `O=C1CCC(N2C(=O)c3ccc(N4CC5CCC4CN5Cc4ccccc4-c4ccc(Cl)cc4)cc3C2=O)C(=O)N1` (stereo not drawn) [GT-05374, 5-(5-((4′-chloro-[1,1′-biphenyl]-2-yl)methyl)-2,5-diazabicyclo[2.2.2]octan-2-yl)-2-(2,6-dioxopiperidin-3-yl)isoindoline-1,3-dione], 520 nM. In the case of `CC1(C)CCC(CN2C3CC2CN(c2ccc4c(c2)C(=O)N(C2CCC(=O)NC2=O)C4=O)C3)=C(c2ccc(Cl)cc2)C1` (stereo not drawn) [GT-05378, 5-(6-((4′-chloro-5,5-dimethyl-3,4,5,6-tetrahydro-[1,1′-biphenyl]-2-yl)methyl)-3,6-diazabicyclo[3.1.1]heptan-3-yl)-2-(2,6-dioxopiperidin-3-yl)isoindoline-1,3-dione] it was 1770 nM. In the case of `CC1(C)CCC(CN2CC3CCC2CN3c2ccc3c(c2)C(=O)N(C2CCC(=O)NC2=O)C3=O)=C(c2ccc(Cl)cc2)C1` (stereo not drawn) [GT-05379, 5-(5-((4′-chloro-5,5-dimethyl-3,4,5,6-tetrahydro-[1,1′-biphenyl]-2-yl)methyl)-2,5-diazabicyclo[2.2.2]octan-2-yl)-2-(2,6-dioxopiperidin-3-yl)isoindoline-1,3-dione] it was 110 nM. Regarding `CC1(C)CCC(CN2CC3CC(C2)N3c2ccc3c(c2)C(=O)N(C2CCC(=O)NC2=O)C3=O)=C(c2ccc(F)cc2)C1` (stereo not drawn) [GT-05386, 2-(2,6-dioxopiperidin-3-yl)-5-(3-((4′-fluoro-5,5-dimethyl-3,4,5,6-tetrahydro-[1,1′-biphenyl]-2-yl)methyl)-3,6-diazabicyclo[3.1.1]heptan-6-yl)isoindoline-1,3-dione], the IC50 was determined as 1460 nM.

`CC1(C)CCC(CN2C3CC2CN(c2ccc4c(c2)C(=O)N(C2CCC(=O)NC2=O)C4=O)C3)=C(c2ccc(F)cc2)C1` (stereo not drawn) [GT-05387, 2-(2,6-dioxopiperidin-3-yl)-5-(6-((4′-fluoro-5,5-dimethyl-3,4,5,6-tetrahydro-[1,1′-biphenyl]-2-yl)methyl)-3,6-diazabicyclo[3.1.1]heptan-3-yl)isoindoline-1,3-dione]: the IC50 came to 810 nM. In the case of `CC1(C)CCC(CN2CC3CCC2CN3c2ccc3c(c2)C(=O)N(C2CCC(=O)NC2=O)C3=O)=C(c2ccc(F)cc2)C1` (stereo not drawn) [GT-05388, 2-(2,6-dioxopiperidin-3-yl)-5-(5-((4′-fluoro-5,5-dimethyl-3,4,5,6-tetrahydro-[1,1′-biphenyl]-2-yl)methyl)-2,5-diazabicyclo[2.2.2]octan-2-yl)isoindoline-1,3-dione] it was 410 nM; in that of `CC1(C)CCC(CN2CCN(Cc3cc(F)c4c(c3)CN(C3CCC(=O)NC3=O)C4=O)CC2)=C(c2ccc(F)cc2)C1` (stereo not drawn) [GT-05392, 3-(7-fluoro-5-((4-((4′-fluoro-5,5-dimethyl-3,4,5,6-tetrahydro-[1,1′-biphenyl]-2-yl)methyl)piperazin-1-yl)methyl)-1-oxoisoindolin-2-yl)piperidine-2,6-dione], 440 nM. Consider `CC1(C)CCC(CN2CCN(Cc3cccc4c3CN(C3CCC(=O)NC3=O)C4=O)CC2)=C(c2ccc(F)cc2)C1` (stereo not drawn) [GT-05393, 3-(4-((4-((4′-fluoro-5,5-dimethyl-3,4,5,6-tetrahydro-[1,1′-biphenyl]-2-yl)methyl)piperazin-1-yl)methyl)-1-oxoisoindolin-2-yl)piperidine-2,6-dione], for which the IC50 worked out at 340 nM. In the case of `CC1(C)CCC(CN2CCN(Cc3ccc4c(c3)C(=O)N(C3CCC(=O)NC3=O)C4)CC2)=C(c2ccc(F)cc2)C1` (stereo not drawn) [GT-05394, 3-(6-((4-((4′-fluoro-5,5-dimethyl-3,4,5,6-tetrahydro-[1,1′-biphenyl]-2-yl)methyl)piperazin-1-yl)methyl)-1-oxoisoindolin-2-yl)piperidine-2,6-dione] it was 490 nM.

The compound `CC1(C)CCC(CN2CC3CN(Cc4ccc5c(c4)CN(C4CCC(=O)NC4=O)C5=O)CC3C2)=C(c2ccc(F)cc2)C1` (stereo not drawn) [GT-05398, 3-(5-((5-((4′-fluoro-5,5-dimethyl-3,4,5,6-tetrahydro-[1,1′-biphenyl]-2-yl)methyl)hexahydropyrrolo[3,4-c]pyrrol-2(1H)-yl)methyl)-1-oxoisoindolin-2-yl)piperidine-2,6-dione] returned an IC50 of 1050 nM. In the case of `CC1(C)CCC(C(=O)N2CC3CN(Cc4ccc5c(c4)CN(C4CCC(=O)NC4=O)C5=O)CC3C2)=C(c2ccc(F)cc2)C1` (stereo not drawn) [GT-05405, 3-(5-((5-(4′-fluoro-5,5-dimethyl-3,4,5,6-tetrahydro-[1,1′-biphenyl]-2-carbonyl)hexahydropyrrolo[3,4-c]pyrrol-2(1H)-yl)methyl)-1-oxoisoindolin-2-yl)piperidine-2,6-dione] it was 500 nM. In the case of `CC1(C)CCC(C(=O)N2CCN(Nc3ccc4c(c3)CN(C3CCC(=O)NC3=O)C4=O)CC2)=C(c2ccc(Cl)cc2)C1` (stereo not drawn) [GT-05417, 3-(5-((4-(4′-chloro-5,5-dimethyl-3,4,5,6-tetrahydro-[1,1′-biphenyl]-2-carbonyl)piperazin-1-yl)amino)-1-oxoisoindolin-2-yl)piperidine-2,6-dione] it was 1480 nM.

Consider `CC1(C)CCC(C(=O)N2CCC(Cc3ccc4c(c3)CN(C3CCC(=O)NC3=O)C4=O)CC2)=C(c2ccc(Cl)cc2)C1` (stereo not drawn) [GT-05418, 3-(5-((1-(4′-chloro-5,5-dimethyl-3,4,5,6-tetrahydro-[1,1′-biphenyl]-2-carbonyl)piperidin-4-yl)methyl)-1-oxoisoindolin-2-yl)piperidine-2,6-dione], for which the IC50 turned out to be 540 nM. In the case of `CC1(C)CCC(C(=O)N2CC(Cc3ccc4c(c3)CN(C3CCC(=O)NC3=O)C4=O)C2)=C(c2ccc(Cl)cc2)C1` (stereo not drawn) [GT-05419, 3-(5-((1-(4′-chloro-5,5-dimethyl-3,4,5,6-tetrahydro-[1,1′-biphenyl]-2-carbonyl)azetidin-3-yl)methyl)-1-oxoisoindolin-2-yl)piperidine-2,6-dione] it was 720 nM; in that of `CC1(C)CCC(CN2CC(O)(C(O)c3ccc4c(c3)CN(C3CCC(=O)NC3=O)C4=O)C2)=C(c2ccc(Cl)cc2)C1` (stereo not drawn) [GT-05427, 3-(5-((1-((4′-chloro-5,5-dimethyl-3,4,5,6-tetrahydro-[1,1′-biphenyl]-2-yl)methyl)-3-hydroxyazetidin-3-yl)(hydroxy)methyl)-1-oxoisoindolin-2-yl)piperidine-2,6-dione], 950 nM; in that of `CC1(C)CCC(CN2CC(Cc3ccc4c(c3)CN(C3CCC(=O)NC3=O)C4=O)C2)=C(c2ccc(Cl)cc2)C1` (stereo not drawn) [GT-05428, 3-(5-((1-((4′-chloro-5,5-dimethyl-3,4,5,6-tetrahydro-[1,1′-biphenyl]-2-yl)methyl)azetidin-3-yl)methyl)-1-oxoisoindolin-2-yl)piperidine-2,6-dione], 1080 nM.
